Test results from BindingDB's records for doi:10.1016/s0960-894x(01)00758-2 (University of St. Andrews, 2002).

Assay: Tested for binding affinity against kynureninase enzyme from bacterial cells

Ki: 10 µM
SMILES: NC(CC(O)c1cccc(O)c1)C(=O)O (stereo unspecified) [2-amino-4-[3'-hydroxyphenyl]-4-hydroxybutanoic acid]
